Structures can show the parent of a compound that is named as a salt. Where two headings read alike, the source gives them in different places.
How the values were obtained:
rat TAAR1 = rat TAAR1 (Rattus norvegicus (Rat), UniProt Q923Y9); test: Radioligand binding assay on rat TAAR1; conditions: rat TAAR1, HEK-293 membranes, second value of cell mouse/rat; read-out: Ki (μM) rat
Method in brief: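 Membranes from HEK293 cells stably expressing rat TAAR1, with Kd checked per batch by saturation. Competition with ³H-(S)-4-[(ethyl-phenyl-amino)-methyl]-4,5-dihydro-oxazol-2-ylamine, compounds 10 pM–10 μM in duplicate, 1 hr at 4 °C. Filtration then scintillation counting; nonspecific binding defined with 10 μM unlabeled ligand.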

mouse TAAR1 = mouse TAAR1 (Mus musculus (Mouse), UniProt Q923Y8); test: Radioligand binding assay on mouse TAAR1; conditions: read-out: Ki (μM) mouse
mouse TAAR1, sequence (Q923Y8 whole entry): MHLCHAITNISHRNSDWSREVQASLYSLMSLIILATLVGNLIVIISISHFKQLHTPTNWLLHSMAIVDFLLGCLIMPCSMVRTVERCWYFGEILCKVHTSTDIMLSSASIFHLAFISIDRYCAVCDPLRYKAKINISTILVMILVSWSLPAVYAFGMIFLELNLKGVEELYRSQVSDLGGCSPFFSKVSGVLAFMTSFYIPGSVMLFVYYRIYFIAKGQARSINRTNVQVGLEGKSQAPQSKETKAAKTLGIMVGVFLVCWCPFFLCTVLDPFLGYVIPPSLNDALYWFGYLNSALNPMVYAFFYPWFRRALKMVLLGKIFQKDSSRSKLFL
Method in brief: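 Membranes were from HEK293 cells stably expressing mouse TAAR1. Compounds from 10 pM to 10 μM, in duplicate, competed with [3H]-(S)-4-[(ethyl-phenyl-amino)-methyl]-4,5-dihydro-oxazol-2-ylamine for 1 h at 4 °C. Nonspecific binding was defined with 10 μM unlabelled ligand, and bound radioactivity was read by filtration and scintillation.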

[1] = mouse TAAR1, HEK-293 membranes, first value of cell mouse/rat

rat TAAR1, sequence (Q923Y9 whole entry): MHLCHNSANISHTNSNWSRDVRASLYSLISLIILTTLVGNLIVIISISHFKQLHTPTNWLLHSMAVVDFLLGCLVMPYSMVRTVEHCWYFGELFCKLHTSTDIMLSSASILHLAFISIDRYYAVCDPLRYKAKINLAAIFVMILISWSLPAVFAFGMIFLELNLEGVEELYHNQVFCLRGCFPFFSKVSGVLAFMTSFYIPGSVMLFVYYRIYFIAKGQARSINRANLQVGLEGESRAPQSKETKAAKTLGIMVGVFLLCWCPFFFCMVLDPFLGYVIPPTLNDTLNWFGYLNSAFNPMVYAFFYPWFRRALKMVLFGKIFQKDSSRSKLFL

Q: `O=C(Nc1ccc(C2CCNC2)cc1)c1ncccc1F` (racemic) [Example 82, (RS)-3-Fluoro-pyridine-2-carboxylic acid (4-pyrrolidin-3-yl-phenyl)-amide hydrochloride] was tested. Which Ki (rat TAAR1) did it give?
A: 1.77 µM

Q: What about the Ki (mouse TAAR1; [1]) of the same molecule?
A: 0.713 µM

Q: With `O=C(Nc1ccc(C2CCCNC2)cc1)Nc1ccc(Cl)cn1` (racemic) [Example 83, (RS)-1-(5-Chloro-pyridin-2-yl)-3-(4-piperidin-3-yl-phenyl)-urea hydrochloride] as the molecule, how does the Ki (rat TAAR1) read?
A: 0.012 µM

Q: And the Ki (mouse TAAR1; [1])?
A: 0.002 µM

Q: `O=C(Nc1ccc(C2CCNC2)cc1)c1ccc2ccccc2n1` (racemic) [Example 84, (RS)-Quinoline-2-carboxylic acid (4-pyrrolidin-3-yl-phenyl)-amide hydrochloride] was tested. Which Ki (rat TAAR1) did it give?
A: 0.0381 µM

Q: And the Ki (mouse TAAR1; [1])?
A: 0.008 µM

Q: `O=C(Nc1ccc(C2CCNC2)cc1)c1cc(Cl)ccn1` (racemic) [Example 86, (RS)-4-Chloro-pyridine-2-carboxylic acid (4-pyrrolidin-3-yl-phenyl)-amide hydrochloride] was tested. Which Ki (rat TAAR1) did it give?
A: 0.116 µM

Q: And the Ki (mouse TAAR1; [1])?
A: 0.0051 µM

Q: Which Ki (rat TAAR1) does the source give for `O=C(Nc1ccc(C2CCNC2)cc1)c1ccc(Br)cn1` (racemic) [Example 87, (RS)-5-Bromo-pyridine-2-carboxylic acid (4-pyrrolidin-3-yl-phenyl)-amide hydrochloride] here?
A: 0.017 µM

Q: And the Ki (mouse TAAR1; [1])?
A: 0.0051 µM

Q: With `COc1ccc(C(=O)Nc2ccc(C3CCNC3)cc2)c(F)c1` (racemic) [Example 88, (RS)-2-Fluoro-4-methoxy-N-(4-pyrrolidin-3-yl-phenyl)-benzamide hydrochloride] as the molecule, how does the Ki (rat TAAR1) read?
A: 0.102 µM

Q: What about the Ki (mouse TAAR1; [1]) of the same molecule?
A: 0.0052 µM

Q: How did the Ki (rat TAAR1) turn out when `O=C(Nc1ccc(C2CCNC2)cc1)c1ccc(OCC(F)(F)F)nc1` (racemic) [Example 89, (RS)—N-(4-Pyrrolidin-3-yl-phenyl)-6-(2,2,2-trifluoro-ethoxy)-nicotinamide hydrochloride] was run?
A: 0.006 µM

Q: And the Ki (mouse TAAR1; [1])?
A: 0.0059 µM

Q: Which Ki (rat TAAR1) does the source give for `COc1cc(C(=O)Nc2ccc(C3CCNC3)cc2)nc2ccccc12` (racemic) [Example 90, (RS)-4-Methoxy-quinoline-2-carboxylic acid (4-pyrrolidin-3-yl-phenyl)-amide hydrochloride] here?
A: 0.0101 µM

Q: What about the Ki (mouse TAAR1; [1]) of the same molecule?
A: 0.0192 µM

Q: What does the source list for `COc1ccc2nc(C(=O)Nc3ccc(C4CCNC4)cc3)ccc2c1` (racemic) [Example 91, (RS)-6-Methoxy-quinoline-2-carboxylic acid (4-pyrrolidin-3-yl-phenyl)-amide hydrochloride]?
A: Ki (rat TAAR1): 0.0223 µM; Ki (mouse TAAR1; [1]): 0.0039 µM

Q: Which results are given for `O=C(Nc1ccc(C2CCCNC2)cc1)c1cccc(Cl)c1` (racemic) [Example 92, (RS)-3-Chloro-N-(4-piperidin-3-yl-phenyl)-benzamide hydrochloride]?
A: Ki (rat TAAR1): 0.0238 µM; Ki (mouse TAAR1; [1]): 0.0238 µM

Q: For `O=C(Nc1ccc(C2CCNC2)cc1)c1nccc2ccsc12` (racemic) [Example 93, (RS)-Thieno[2,3-c]pyridine-7-carboxylic acid (4-pyrrolidin-3-yl-phenyl)-amide hydrochloride], which Ki (rat TAAR1) is on record?
A: 0.173 µM

Q: What about the Ki (mouse TAAR1; [1]) of the same molecule?
A: 0.04 µM

Q: Which results are given for `COc1ccc(C(=O)Nc2ccc(C3CCNC3)cc2)nc1` (racemic) [Example 94, (RS)-5-Methoxy-pyridine-2-carboxylic acid (4-pyrrolidin-3-yl-phenyl)-amide hydrochloride]?
A: Ki (rat TAAR1): 0.379 µM; Ki (mouse TAAR1): 0.0601 µM

Q: Which Ki (rat TAAR1) does the source give for `COc1ccc(C(=O)Nc2ccc(C3CCNC3)cc2)c(OC)n1` (racemic) [Example 95, (RS)-2,6-Dimethoxy-N-(4-pyrrolidin-3-yl-phenyl)-nicotinamide] here?
A: 0.322 µM

Q: And the Ki (mouse TAAR1; [1])?
A: 0.0385 µM

Q: Which Ki (rat TAAR1) does the source give for `O=C(Nc1ccc(C2CCCNC2)cc1)c1ccc(Cl)c(Cl)c1` (racemic) [Example 96, (RS)-3,4-Dichloro-N-(4-piperidin-3-yl-phenyl)-benzamide hydrochloride] here?
A: 0.0067 µM

Q: What about the Ki (mouse TAAR1; [1]) of the same molecule?
A: 0.0016 µM

Q: With `CCOc1ccc(C(=O)Nc2ccc(C3CCCNC3)cc2)cc1` (racemic) [Example 97, (RS)-4-Ethoxy-N-(4-piperidin-3-yl-phenyl)-benzamide hydrochloride] as the molecule, how does the Ki (rat TAAR1) read?
A: 0.0193 µM

Q: What about the Ki (mouse TAAR1; [1]) of the same molecule?
A: 0.0038 µM

Q: What does the source list for `O=C(Nc1ccc(C2CCCNC2)cc1)c1ccc(C(F)(F)F)cc1` (racemic) [Example 98, (RS)—N-(4-Piperidin-3-yl-phenyl)-4-trifluoromethyl-benzamide hydrochloride]?
A: Ki (rat TAAR1): 0.0114 µM; Ki (mouse TAAR1; [1]): 0.0041 µM

Q: Which Ki (rat TAAR1) does the source give for `O=C(Nc1ccc(C2CCCNC2)cc1)c1ccc(Cl)cc1Cl` (racemic) [Example 99, (RS)-2,4-Dichloro-N-(4-piperidin-3-yl-phenyl)-benzamide hydrochloride] here?
A: 0.0501 µM

Q: What about the Ki (mouse TAAR1; [1]) of the same molecule?
A: 0.013 µM

Q: What does the source list for `O=C(Nc1ccc(C2CCCNC2)cc1)c1ccc(Cl)cc1F` (racemic) [Example 100, (RS)-4-Chloro-2-fluoro-N-(4-piperidin-3-yl-phenyl)-benzamide hydrochloride]?
A: Ki (rat TAAR1): 0.0308 µM; Ki (mouse TAAR1; [1]): 0.0036 µM

Q: `O=C(CCc1ccc(Cl)cc1)Nc1ccc(C2CCCNC2)cc1` (racemic) [Example 101, (RS)-3-(4-Chloro-phenyl)-N-(4-piperidin-3-yl-phenyl)-propionamide hydrochloride] was tested. Which Ki (rat TAAR1) did it give?
A: 0.0263 µM

Q: And the Ki (mouse TAAR1; [1])?
A: 0.002 µM

Q: What does the source list for `O=C(Cc1ccc(Cl)cc1)Nc1ccc(C2CCCNC2)cc1` (racemic) [Example 102, (RS)-2-(4-Chloro-phenyl)-N-(4-piperidin-3-yl-phenyl)-acetamide hydrochloride]?
A: Ki (rat TAAR1): 0.0894 µM; Ki (mouse TAAR1; [1]): 0.0108 µM

Q: `CC(C(=O)Nc1ccc(C2CCCNC2)cc1)c1ccc(Cl)cc1` (racemic) [Example 103, (RS)-2-(4-Chloro-phenyl)-N—((RS)-4-piperidin-3-yl-phenyl)-propionamide] was tested. Which Ki (rat TAAR1) did it give?
A: 0.0646 µM

Q: And the Ki (mouse TAAR1; [1])?
A: 0.705 µM

Q: For `CC(C(=O)Nc1ccc(C2CCCNC2)cc1)c1cccc(OC(F)(F)F)c1` (racemic) [Example 105, (RS)—N—((RS)-4-Piperidin-3-yl-phenyl)-2-(3-trifluoromethoxy-phenyl)-propionamide], which Ki (rat TAAR1) is on record?
A: 0.0135 µM

Q: And the Ki (mouse TAAR1; [1])?
A: 0.0296 µM

Q: `O=C(Nc1ccc(C2CCCNC2)cc1)c1ncc(F)cc1F` (racemic) [Example 106, (RS)-3,5-Difluoro-pyridine-2-carboxylic acid (4-piperidin-3-yl-phenyl)-amide hydrochloride] was tested. Which Ki (rat TAAR1) did it give?
A: 1.43 µM

Q: And the Ki (mouse TAAR1; [1])?
A: 0.0248 µM

Q: For `O=C(Nc1ccc(CC2CCCN2)cc1)c1ccc(Cl)cc1` (racemic) [Example 107, (RS)-4-Chloro-N-(4-pyrrolidin-2-ylmethyl-phenyl)-benzamide hydrochloride], which Ki (rat TAAR1) is on record?
A: 0.0445 µM

Q: And the Ki (mouse TAAR1; [1])?
A: 0.0027 µM

Q: For `O=C(Nc1ccc(C2CCNC2)cc1)c1cc2ccccc2c(Cl)n1` (racemic) [Example 108, (RS)-1-Chloro-isoquinoline-3-carboxylic acid (4-pyrrolidin-3-yl-phenyl)-amide hydrochloride], which Ki (rat TAAR1) is on record?
A: 0.0081 µM

Q: And the Ki (mouse TAAR1; [1])?
A: 0.0046 µM

Q: Which results are given for `O=C(Nc1ccc(CCC2CCNC2)cc1)c1ccc(Cl)cc1` (racemic) [Example 109, (RS)-4-Chloro-N-[4-(2-pyrrolidin-3-yl-ethyl)-phenyl]-benzamide hydrochloride]?
A: Ki (rat TAAR1): 0.0176 µM; Ki (mouse TAAR1; [1]): 0.0017 µM

Q: `O=C(Nc1ccc(CCC2CCCNC2)cc1)c1ccc(Cl)cc1` (racemic) [Example 110, (RS)-4-Chloro-N-[4-(2-piperidin-3-yl-ethyl)-phenyl]-benzamide hydrochloride] was tested. Which Ki (rat TAAR1) did it give?
A: 0.0375 µM

Q: And the Ki (mouse TAAR1; [1])?
A: 0.0021 µM

Q: With `CC(C(=O)Nc1ccc(C2CCCNC2)cc1)c1cccc(Cl)c1` (racemic) [Example 111, (RS)-2-(3-Chloro-phenyl)-N—((RS)-4-piperidin-3-yl-phenyl)-propionamide] as the molecule, how does the Ki (rat TAAR1) read?
A: 0.0382 µM

Q: And the Ki (mouse TAAR1; [1])?
A: 0.0349 µM

Q: With `O=C(Nc1ccc(CCC2CCNC2)cc1)Nc1ccc(Cl)cn1` (racemic) [Example 114, (RS)-1-(5-Chloro-pyridin-2-yl)-3-[4-(2-pyrrolidin-3-yl-ethyl)-phenyl]-urea hydrochloride] as the molecule, how does the Ki (rat TAAR1) read?
A: 0.0074 µM

Q: What about the Ki (mouse TAAR1; [1]) of the same molecule?
A: 0.0836 µM

Q: With `O=C(Nc1ccc(CCC2CCCNC2)cc1)Nc1ccc(Cl)cn1` (racemic) [Example 115, (RS)-1-(5-Chloro-pyridin-2-yl)-3-[4-(2-piperidin-3-yl-ethyl)-phenyl]-urea hydrochloride] as the molecule, how does the Ki (rat TAAR1) read?
A: 0.0118 µM

Q: And the Ki (mouse TAAR1; [1])?
A: 0.32 µM

Q: Which Ki (rat TAAR1) does the source give for `O=C(Nc1ccc(Cl)cc1)Nc1ccc(CCC2CCNC2)cc1` (racemic) [Example 116, (RS)-1-(4-Chloro-phenyl)-3-[4-(2-pyrrolidin-3-yl-ethyl)-phenyl]-urea hydrochloride] here?
A: 0.0014 µM

Q: And the Ki (mouse TAAR1; [1])?
A: 0.0608 µM

Q: `O=C(Nc1ccc(CCC2CCNC2)cc1)c1ccc(Cl)cn1` (racemic) [Example 117, (RS)-5-Chloro-pyridine-2-carboxylic acid [4-(2-pyrrolidin-3-yl-ethyl)-phenyl]-amide hydrochloride] was tested. Which Ki (rat TAAR1) did it give?
A: 0.0029 µM

Q: What about the Ki (mouse TAAR1; [1]) of the same molecule?
A: 0.0531 µM

Q: Which results are given for `O=C(Nc1ccc(CCC2CCCNC2)cc1)c1ccc(Cl)cn1` (racemic) [Example 118, (RS)-5-Chloro-pyridine-2-carboxylic acid [4-(2-piperidin-3-yl-ethyl)-phenyl]-amide hydrochloride]?
A: Ki (rat TAAR1): 0.0081 µM; Ki (mouse TAAR1; [1]): 0.13 µM

Q: Which Ki (rat TAAR1) does the source give for `O=C(Nc1ccc(Cl)cc1)Nc1ccc(CCC2CCCNC2)cc1` (racemic) [Example 119, (RS)-1-(4-Chloro-phenyl)-3-[4-(2-piperidin-3-yl-ethyl)-phenyl]-urea hydrochloride] here?
A: 0.0018 µM

Q: What about the Ki (mouse TAAR1; [1]) of the same molecule?
A: 0.0365 µM

Q: Which Ki (rat TAAR1) does the source give for `O=C(Nc1ccc(C2CCNC2)cc1)OCCc1ccc(Cl)cc1` (racemic) [Example 120, (RS)-(4-Pyrrolidin-3-yl-phenyl)-carbamic acid 2-(4-chloro-phenyl)-ethyl ester] here?
A: 0.0013 µM

Q: And the Ki (mouse TAAR1; [1])?
A: 0.0004 µM

Q: Which results are given for `O=C(Nc1ccc(C2CCNC2)cc1)OCCc1cccc(Cl)c1` (racemic) [Example 121, (RS)-(4-Pyrrolidin-3-yl-phenyl)-carbamic acid 2-(3-chloro-phenyl)-ethyl ester]?
A: Ki (rat TAAR1): 0.0004 µM; Ki (mouse TAAR1; [1]): 0.0005 µM
